Data on 24 compounds can be found in patent US10844013B2, “Phenyl amino piperidine mTORC inhibitors and uses thereof” (Navitor Pharmaceuticals, Inc., priority 2016, dated 2020).

The subject of experiment [1] is pAKT (p-Akt 1/2/3 (Ser473)) in MCF-7 cells. Briefly: AlphaLISA Ultra pAKT assay. It counts as cell-based. As for the experimental part: Example 156: AlphaLISA Ultra pAKT Assay
(§1) Assay Protocol: • 1. MCF-7 cells in Corning 3701 plate and incubate for 20-24 hour. 16,000-20,000 cells will be seeded in 36 μL medium per well. • 2. Change the culture medium with fresh medium and incubate for another 2 hours. • 3. Add 12 μL (4×) compounds into the cell plate by HAMILTON. Final DMSO concentration is 0.5%. Incubate for 2 hours. • 4. Aspirate 38 j L by HAMILTON, 10 μL rest per well. • 5. Add 10 μL 2× lysis buffer using HAMILTON; total volume in wells is 20 μL. Allow cells to shake for 30 min. Cover plate by plastic foil and store plate at −80° C. up to analysis. • 6. Thaw cell lysate at RT and transfer 10 ul lysate to assay plate (Optiplate-384). • 7. Add 5 ul acceptor beads into assay plate and incubation for 2 hours • 8. Add 5 ul donor beads and incubation for 2 hours • 9. Count the plate by EnSpire Multimode Plate Reader

In experiment [2] the test system is pS6K1 (p-p70 S6 Kinase (Thr389)) in MCF-7 cells. Briefly: AlphaLISA Ultra pS6K1 assay. It counts as cell-based. The following applies: 2 hours compound incubation. The procedure:
Example 155: AlphaLISA Ultra pS6K1 assay
as §1, with “1. Seed” for “1.”, “20˜24” for “20-24”, “12,000˜16,000” for “16,000-20,000”, “μL” for “j L”

Setting [3] is: Homo sapiens, MCF7, 2 hours compound incubation.
Where [4] appears, read: 2 hours compound incubation, read-out: pAKT in MCF7: IC50.

pIC50: −log10 of the molar value. Structures can show the parent of a compound that is named as a salt. Where two headings read alike, the source gives them in different places. Some results are limits rather than exact numbers.

As to `Cc1cc(C)c(C(=O)N2CCN(c3ccccn3)[C@H](CO)C2)cc1NC1CCN(c2ccccc2C#N)CC1` (single isomer, unassigned) [I-38, 2-[4-({5-[(3S or 3R)-3-(hydroxymethyl)-4-(pyridin-2-yl)piperazine-1-carbonyl]-2,4-dimethylphenyl}amino)piperidin-1-yl]benzonitrile], the pIC50 was less than 5.00 in experiment [1] (setting [3]) and 5.30 to 5.52 in experiment [2] (Homo sapiens, MCF7, 2 h).
On the same counts, the results for `Cc1cc(C)c(C(=O)N2CCN(c3ccccc3)[C@H](CO)C2)cc1NC1CCN(c2ccccc2C#N)CC1` (single isomer, unassigned) [I-40, 2-[4-({5-[3S or R-(hydroxymethyl)-4-phenylpiperazine-1-carbonyl]-2,4-dimethylphenyl}amino)piperidin-1-yl]benzonitrile] are less than 5.00 and 6.00 to 8.00.
On to `Cc1cc(C)c(C(=O)N2CCN(c3ccccc3)[C@@H](CO)C2)cc1NC1CCN(c2ccccc2C#N)CC1` (single isomer, unassigned) [I-41, 2-[4-({5-[3R or S-(hydroxymethyl)-4-phenylpiperazine-1-carbonyl]-2,4-dimethylphenyl}amino)piperidin-1-yl]benzonitrile], for which the pIC50 in experiment [1] (setting [3]) is less than 5.00; in experiment [2] (Homo sapiens, MCF7, 2 h), 5.52 to 6.00.
As to `Cc1cc(C)c(C(=O)N2CCN(c3ccccc3S(C)(=N)=O)CC2)cc1NC1CCN(c2ccccc2C#N)CC1` (single isomer, unassigned) [I-50, 2-(4-{[5-(4-{2-[(R or S)-imino(methyl)oxo-λ^6-sulfanyl]phenyl}piperazine-1-carbonyl)-2,4-dimethylphenyl]amino}piperidin-1-yl)benzonitrile], the pIC50 was less than 5.00 in experiment [1] (setting [4]) and 5.52 to 6.00 in experiment [2] (read-out: pS6K1 in MCF7: IC50).
`Cc1cc(C)c(C(=O)N2CCN(c3ccccc3C#N)[C@@H](CO)C2)cc1NC1CCN(c2ccccc2C#N)CC1` (single isomer, unassigned) [I-77, 2-[4-({5-[(3R or 3S)-4-(2-Cyanophenyl)-3-(hydroxymethyl)piperazine-1-carbonyl]-2,4-dimethylphenyl}amino)piperidin-1-yl]benzonitrile]: the pIC50 in experiment [1] (setting [3]) was less than 5.00; in experiment [2] (Homo sapiens, MCF7, 2 h) it was 6.00 to 8.00.
Turning to `Cc1ccc(NC2CCN(c3ccccc3C#N)CC2)cc1C(=O)N1CCN(c2ccccc2)C(CO)C1` (single isomer, unassigned) [I-82, 2-[4-({3-[(3R or S)-3-(hydroxymethyl)-4-phenylpiperazine-1-carbonyl]-4-methylphenyl}amino)piperidin-1-yl]benzonitrile], the pIC50 in experiment [1] (setting [3]) was less than 5.00; in experiment [2] (read-out: pS6K1 in MCF7: IC50), 5.30 to 5.52.
Turning to `Cc1ccc(NC2CCN(c3ccccc3C#N)CC2)cc1C(=O)N1CCN(c2ccccc2)C(CO)C1` (single isomer, unassigned) [I-83, 2-[4-({3-[(3S or R)-3-(hydroxymethyl)-4-phenylpiperazine-1-carbonyl]-4-methylphenyl}amino)piperidin-1-yl]benzonitrile], the values for the pIC50 in experiment [1] (setting [4]) and in experiment [2] (read-out: pS6K1 in MCF7: IC50) were less than 5.00 and 6.00 to 8.00, respectively.
Regarding `Cc1ccc(C(=O)N2CCN(c3ccccc3)C(CO)C2)cc1NC1CCN(c2ccccc2C#N)CC1` (single isomer, unassigned) [I-84, 2-[4-({5-[(3R or S)-3-(hydroxymethyl)-4-phenylpiperazine-1-carbonyl]-2-methylphenyl}amino)piperidin-1-yl]benzonitrile], the negative-log IC50 (pIC50) in experiment [1] (setting [3]) was less than 5.00; in experiment [2] (read-out: pS6K1 in MCF7: IC50), 5.52 to 6.00.
Turning to `Cc1ccc(C(=O)N2CCN(c3ccccc3)C(CO)C2)cc1NC1CCN(c2ccccc2C#N)CC1` (single isomer, unassigned) [I-85, 2-[4-({5-[(3S or R)-3-(hydroxymethyl)-4-phenylpiperazine-1-carbonyl]-2-methylphenyl}amino)piperidin-1-yl]benzonitrile], the results for the pIC50 in experiment [1] (setting [4]) and in experiment [2] (read-out: pS6K1 in MCF7: IC50) were less than 5.00 and 6.00 to 8.00, respectively.
With `Cc1cc(C)c(C(=O)N2CCN(c3cccc(F)c3[S@](C)(=N)=O)CC2)cc1NC1CCN(c2ccccc2C#N)CC1` (single isomer, unassigned) [I-89], the pIC50 in experiment [1] (setting [3]) was less than 5.00; in experiment [2] (Homo sapiens, MCF7, 2 h), 6.00 to 8.00.
On the same counts, the results for `Cc1cc(C)c(C(=O)N2CCN(c3ncccc3[S@](C)(=N)=O)CC2)cc1NC1CCN(c2ccccc2C#N)CC1` (single isomer, unassigned) [I-93] are less than 5.00 and 5.52 to 6.00.
On the same counts, the results for `Cc1cc(C)c(C(=O)N2CCN(c3ccccc3S(C)(=N)=O)CC2)nc1NC1CCN(c2ccccc2C#N)CC1` (single isomer, unassigned) [I-126, 2-(4-(3,5-Dimethyl-6-(4-(2-(S-methylsulfonimidoyl)phenyl)piperazine-1-carbonyl)pyridin-2-ylamino)piperidin-1-yl)benzonitrile] are less than 5.00 and 6.00 to 8.00.
On the same counts, the results for `CNC(=O)c1ccccc1N1CCN(C(=O)c2cc(NC3CCN(c4ccccc4C#N)CC3)c(C)cc2C)C[C@@H]1CO` (single isomer, unassigned) [I-133] are less than 5.00 and 5.52 to 6.00.
As to `CNC(=O)c1ccccc1N1CCN(C(=O)c2cc(NC3CCN(c4ccccc4C#N)CC3)c(C)cc2C)C[C@H]1CO` (single isomer, unassigned) [I-134], the pIC50 is less than 5.00 in experiment [1] (setting [3]) and 5.52 to 6.00 in experiment [2] (Homo sapiens, MCF7, 2 h).
On the same counts, the results for `COc1cccc(N2CCC(Nc3cc(C(=O)N4CCN(c5ccccc5S(N)(=O)=O)CC4)c(C)cc3C)CC2)c1` [I-5, 2-(4-(5-(1-(3-Methoxyphenyl)piperidin-4-ylamino)-2,4-dimethylbenzoyl)piperazin-1-yl) benzenesulfonamide] are less than 5.00 and 5.52 to 6.00.
On to `Cc1cc(C)c(C(=O)N2CCN(C(=O)OC(C)(C)C)[C@@H](CO)C2)cc1NC1CCN(c2ccccc2C#N)CC1` [I-7, (R)-tert-Butyl 4-(5-(1-(2-cyanophenyl)piperidin-4-ylamino)-2,4-dimethylbenzoyl)-2-(hydroxymethyl) piperazine-1-carboxylate], for which the negative-log IC50 (pIC50) in experiment [1] (setting [3]) was less than 5.00; in experiment [2] (Homo sapiens, MCF7, 2 h) it was 5.52 to 6.00.
On the same counts, the results for `Cc1cc(C)c(C(=O)N2CCN[C@H](CO)C2)cc1NC1CCN(c2ccccc2C#N)CC1` [I-8, (S)-2-(4-(5-(3-(hydroxymethyl)piperazine-1-carbonyl)-2,4-dimethylphenylamino)piperidin-1-yl)benzonitrile] are less than 5.00 and less than 5.00.
With `Cc1cc(C)c(C(=O)N2CCN(C(=O)OC(C)(C)C)[C@H](CO)C2)cc1NC1CCN(c2ccccc2C#N)CC1` [I-9, (S)-tert-butyl 4-(5-(1-(2-cyanophenyl)piperidin-4-ylamino)-2,4-dimethylbenzoyl)-2-(hydroxymethyl)piperazine-1-carboxylate], the pIC50 in experiment [1] (setting [3]) was less than 5.00; in experiment [2] (Homo sapiens, MCF7, 2 h), 5.52 to 6.00.
`CCN(c1cc(C(=O)N2CCN(c3ccccc3S(N)(=O)=O)CC2)c(C)cc1C)C1CCN(c2ccccc2C#N)CC1C` (stereo not drawn) [I-10, 2-(4-(5-((1-(2-Cyanophenyl)-3-methylpiperidin-4-yl)(ethyl)amino)-2,4-dimethylbenzoyl)piperazin-1-yl)benzenesulfonamide]: the pIC50 in experiment [1] (setting [3]) is less than 5.00; in experiment [2] (Homo sapiens, MCF7, 2 h) it was 5.52 to 6.00.
As to `Cc1ccc(C(=O)N2CCN(c3ccccc3S(N)(=O)=O)CC2)cc1NC1CCN(c2ccccc2C#N)CC1` [I-11], the negative logarithm of the IC50 (pIC50) in experiment [1] (setting [3]) is less than 5.00; in experiment [2] (Homo sapiens, MCF7, 2 h), 5.30 to 5.52.
On the same counts, the results for `Cc1nc(C)c(C(=O)N2CCN(c3ccccc3C#N)CC2)cc1NC1CCN(c2ccccc2C#N)CC1` [I-13, 2-(4-(5-(4-(2-Cyanophenyl)piperazine-1-carbonyl)-2,6-dimethylpyridin-3-ylamino)piperidin-1-yl)benzonitrile] are less than 5.00 and 5.30 to 5.52.
On the same counts, the results for `Cc1cc(C)c(C(=O)N2CCN(c3cccc(F)c3S(N)(=O)=O)CC2)nc1NC1CCN(c2ccccc2C#N)CC1` [I-16, 2-(4-(6-(1-(2-Cyanophenyl)piperidin-4-ylamino)-3,5-dimethylpicolinoyl)piperazin-1-yl)-6-fluorobenzenesulfonamide] are less than 5.00 and 6.00 to 8.00.
Consider `Cc1cc(C)c(C(=O)N2CCN(c3ccccc3C#N)CC2)cc1NC1CCN(c2cccc(Cl)c2)CC1` [I-17, 2-(4-(5-(1-(3-Chlorophenyl)piperidin-4-ylamino)-2,4-dimethylbenzoyl)piperazin-1-yl)benzonitrile], for which the negative logarithm of the IC50 (pIC50) in experiment [1] (setting [3]) was less than 5.00; in experiment [2] (Homo sapiens, MCF7, 2 h), 5.52 to 6.00.
Regarding `Cc1cc(C)c(C(=O)N2CCN(c3ccccc3C#N)CC2)cc1NC1CCN(c2cccc(C#N)c2)CC1` [I-18, 2-(4-(5-(1-(3-Cyanophenyl)piperidin-4-ylamino)-2,4-dimethylbenzoyl)piperazin-1-yl)benzonitrile trifluoroacetate], the pIC50 in experiment [1] (setting [3]) was less than 5.00; in experiment [2] (Homo sapiens, MCF7, 2 h) it was 5.52 to 6.00.
